Where two headings read alike, the source gives them in different places. Ends that are not written are not given here.
Columns and labels:
Swiss mice [1] = test: Tail flick (tail removal) nociception test; assay type: in vivo, Mus musculus; settings: for activity profile of the group given substance+naloxone compared with saline: with serial naloxone 4 mg/kg
Method: (§1) In vivo analyzes: Tests were carried out on Swiss mice of the Mus musculus species, in which nociception tests (hot plate and tail removal test) were used according to Le Bars et al. (2001). Injections were administered via intraperitoneal (IP). Doses were based upon dose and molaridade of the morphine (10 mg/kg animal).
(§2) FIGS. 1,2,3 and 4 represent the raw data obtained from the experiments after statistical analysis. The symbols (*, **, #) indicate the beginning of the statistically significant activity (S) or the statistically non-significant differences (NS). Analyzes of opioid activity were performed in two classical models of studies for this activity: Tail Flick or Hot Plate test.

Swiss mice [2] = assay type: in vivo, Mus musculus
Method: as §1, §2

trypsin = settings: 37° C., 15 minutes to 4 hours, MALDI
Method: Representation of the fragments obtained at the different incubation times with the enzyme trypsin. Analysis performed by mass spectrometry, MALDI. The first spectrum, marked with the letter A, refers to the time of 15 minutes; The second spectrum marked with the letter B indicates the time of 30 minutes; C indicates the time of 1 hour; D indicates the time of 2 hours; E indicates the time of 4 hours and, finally, F is the control peptide (SEQ ID NO: 2).

In the case of C=CCN1CC[C@]23c4c5ccc(O)c4O[C@H]2C(=O)CC[C@@]3(O)[C@H]1C5 [naloxone, reference compound], the “activity profile of naloxone alone compared with saline” value (Swiss mice [1]; tail-flick, naloxone 4 mg/kg) is reported as “no significant differences in activity profile” and the “activity profile of naloxone alone compared with saline” value (Swiss mice [2]; hot plate, naloxone 4 mg/kg) is reported as “no significant differences in activity profile”.

“SEQ ID NO: 1: opioid peptide of formula TyrProPhe-X1-TrpGlyGly-X2-ProPro (X1 Gly or Lys; X2 Ile or Val); exact sequence not printed in the text (YPFGWGGIPP)” was tested, and the “cumulative effect over time (area under the curve)” value (Swiss mice [1]; tail flick, compared with morphine and Leu-enkephalin) was “greater than morphine and similar to Leu-enkephalin”, the “time from which there was no significant difference from Leu-enkephalin (peptide positive control)” value (Swiss mice [1]; tail-flick, IP, Leu-enkephalin 19.3 mg/kg, P>0.05) was “no significant difference throughout the assay” and the “time at which statistically significant antinociceptive action started, in relation to saline” value (Swiss mice [1]; tail-flick, IP, dose equimolar to morphine 10 mg/kg, test of 240 min) was 90 min. For the same molecule, the “time from which there was no significant difference from morphine (positive control)” value (Swiss mice [1]; tail-flick, IP, morphine 10 mg/kg) was 90 min, the “time up to which the significant antinociceptive action lasted, in relation to saline” value (Swiss mice [1]; tail-flick, IP, test of 240 min) was 240 min and the “difference between peptide alone and peptide+naloxone (naloxone reversal)” value (Swiss mice [1]; tail-flick, serial hourly naloxone 4 mg/kg, P<0.001) was “Except for the time of 30 min, there were significant differences”. The “activity profile of the group given substance+naloxone compared with saline” value (Swiss mice [1]; tail-flick) was “no significant differences in activity profile”, the “time from which there were no statistically significant differences from morphine” value (Swiss mice [2]; hot plate, IP, morphine 10 mg/kg, P>0.05) was 60 min and the “persistence of the significant difference in relation to saline” value (Swiss mice [2]; hot plate, IP, test of 240 min) was “at the time of 120 minutes, there was no significant difference”. For the same molecule, the “time at which statistically significant antinociceptive activity started, in relation to saline” value (Swiss mice [2]; hot plate, IP, test of 240 min) was 60 min, the “difference between peptide alone and peptide+naloxone (naloxone reversal)” value (Swiss mice [2]; hot plate, serial naloxone 4 mg/kg, later discontinued) was “no significant differences only at 210 minutes and 240 minutes” and the “activity after administration of naloxone was discontinued” value (Swiss mice [2]; hot plate, substance+naloxone group) was “returned to action”. For the same molecule, the “cumulative effect over time (area below the curve)” value (Swiss mice [2]; mouse, in vivo) was “higher cumulative effect similar to morphine and Leu-encefaiina” and the “difference from Leu-enkephalin” value (Swiss mice [2]; mouse, in vivo) was “no statistically significant differences”.

“YGGFL [Leu-enkephalin, reference compound]” was tested, and the “activity profile of the group given substance+naloxone compared with saline” value (Swiss mice [1]; tail-flick) was “no significant differences in activity profile”, the “activity after administration of naloxone was discontinued” value (Swiss mice [2]; mouse, in vivo) was “activity has also been resumed” and the “activity profile of the group given substance+naloxone compared with saline” value (Swiss mice [2]; mouse, in vivo) was “no significant differences in activity profile”.

YPFKWGGVPP [SEQ ID NO: 2] was tested, and the “intensity of the major (precursor ion) peak during incubation with the enzyme” value (trypsin) was “will reduce its intensity”.
